US11845747B2, “Ester and carbonate pyrimidine compounds as JAK kinase inhibitors” (priority 2019, dated 2023)
Values after ≈ are worked out from the molar mass of the structure shown.

Legend:
[1] = system: IL-2 stimulated STAT5 phosphorylation in Tall-1 human T cell line (JAK1/3); test: Inhibition of IL-2 stimulated pSTAT5 in Tall-1 T cells; assay type: cell-based; conditions: IL-2 300 ng/mL, AlphaLisa, read-out: Tall-1 IL2 pSTAT5 (pIC50) (converted)
Experimental: Assay 2: Inhibition of IL-2 Stimulated pSTAT5 in Tall-1 T Cells
The potency of test compounds for inhibition of interleukin-2 (IL-2) stimulated STATS phosphorylation was measured in the Tall-1 human T cell line (DSMZ) using AlphaLisa. Because IL-2 signals through JAK1/3, this assay provides a measure of JAK1/3 cellular potency.
Phosphorylated STAT5 was measured via the AlphaLISA SureFire Ultra pSTAT5 (Tyr694/699) kit (PerkinElmer). Human T cells from the Tall-1 cell line were cultured in a 37° C., 5% CO2 humidified incubator in RPMI (Life Technologies) supplemented with 15% Heat Inactivated Fetal Bovine Serum (FBS, Life Technologies), 2 mM Glutamax (Life Technologies), 25 mM HEPES (Life Technologies) and 1× Pen/Strep (Life Technologies). Compounds were serially diluted in DMSO and dispensed acoustically to empty wells. Assay media (phenol red-free DMEM (Life Technologies) supplemented with 10% FBS (ATCC)) was dispensed (4 μL/well) and plates shaken at 900 rpm for 10 mins. Cells were seeded at 45,000 cells/well in assay media (4 μL/well), and incubated at 37° C., 5% CO2 for 1 hour, followed by the addition of IL-2 (R&D Systems; final concentration 300 ng/mL) in pre-warmed assay media (4 μL) for 30 minutes. After cytokine stimulation, cells were lysed with 6 ul of 3× AlphaLisa Lysis Buffer (PerkinElmer) containing 1× PhosStop and Complete tablets (Roche). The lysate was shaken at 900 rpm for 10 minutes at room temperature (RT). Phosphorylated STAT5 was measured via the pSTAT5 AlphaLisa kit (PerkinElmer). Freshly prepared acceptor bead mixture was dispensed onto lysate (5 μL) under green filtered <100 lux light. Plates were shaken at 900 rpm for 2 mins, briefly spun down, and incubated for 2 hrs at RT in the dark. Donor beads were dispensed (5 μL) under green filtered <100 lux light. Plates were shaken at 900 rpm for 2 minutes, briefly spun down, and incubated overnight at RT in the dark. Luminescence was measured with excitation at 689 nm and emission at 570 nm using an EnVision plate r reader (PerkinElmer) under green filtered <100 lux light.
To determine the inhibitory potency of test compounds in response to IL-2, the average emission intensity of beads bound to pSTAT5 was measured in a human T cell line. IC50 values were determined from analysis of the inhibition curves of signal intensity versus compound concentration. Data are expressed as pIC50 (negative decadic logarithm IC50) values (mean±standard deviation).

physchem = assay type: physicochemical; conditions: thermodynamic from solid
Experimental: Assay 5: Solubility Assay in Organic Excipients The purpose of this assay was to quantify the solubility of test compounds in different organic excipients such as diisopropyl adipate, medium chain triglycerides (MCT), propylene glycol, and polyethylene glycol. The assay required 80 μL of 100 mM DMSO test compound solution per desired excipient in addition to 40 μL required to make a test standard. For example, to test a compound in all five […]) of 100 mM DMSO compound stock solution was required. The standard was created by diluting 40 μL of 100 mM DMSO compound stock solution into 160 μL of methanol and was shaken for five minutes to ensure solution uniformity. […] This 20,000 μM solution was run on an Agilent 1260 LC-MS system by injecting 0.2 μL in order to obtain the peak area. For the test solutions, 80 μL of 100 mM DMSO compound stock solution, per excipient, were dried down into a powder overnight. Once in powder form, 400 μL of the desired excipient was added to the powder and allowed to shake vigorously for four hours. The maximum theoretical concentration for this sample solution was 20,000 μM. After four hours of shaking, the samples were centrifuged for 10 minutes at 3,000 RPM before injecting 0.2 μL on the same Agilent 1260 LC-MS system to obtain the peak area. […] In Table 3 below, A represents a value above 10, B represents a value between 5 and 10, C represents a value below 5.

in vitro = in vitro ADME; conditions: human, microsomes, pH 7.4
Experimental: Assay 3: Human Liver Microsome Assay The objective of this assay was to assess the metabolic stability of test compounds in an in vitro human liver sub-fraction. Human liver microsomes obtained from Bioreclamation-IVT (Baltimore, Md.) were thawed on ice and diluted into 0.1M potassium phosphate buffer pH 7.4 to yield final incubation protein concentrations of 0.1 mg/mL. Test compounds (10 mM) were diluted into NADPH cofactor to yield final incubation concentrations of 0.1 μM test compound and 1 mM NADPH. Incubations were conducted at 37° C. temperature and test aliquots were taken at time points 0, 5, 8, 15, 30 and 45 minutes. […] The resulting samples were injected onto an LC-MS/MS system for analysis. For each incubation, the peak area of the analytes in each t0 aliquot was set to 100% and the peak areas from subsequent time point aliquots were converted to percentage of parent compound remaining relative to t0. The percentage of parent compound remaining was converted to natural log scale and plotted versus time in minutes. A linear regression analysis was performed for the initial decline of the parent disappearance profile and a formula for the best-fit line determined. The slope of the resultant line was normalized to protein concentration in mg/mL protein or number of cells/mL and CLint was calculated as follows for liver microsomes: CLint(μL·min^−1·mg^−1)=(Slope×1000)/[protein, mg/mL]

[2] = oil or lipid, Solubility in MCT
[3] = organic solvent or mixture, Solubility in Diisopropyl adipate
[4] = organic solvent or mixture, Solubility in PEG400
[5] = organic solvent or mixture, Solubility in Propylene glycol
[6] = organic solvent or mixture, Solubility in Transcutol

SMILES | IC50 [1] | solubility at 4 h (physchem; [2]) | solubility at 4 h (physchem; [3]) | solubility at 4 h (physchem; [4]) | solubility at 4 h (physchem; [5]) | solubility at 4 h (physchem; [6]) | microsomal CLint at 0.1 μM (in vitro)
CCS(=O)(=O)N1[C@@H]2CCC[C@H]1C[C@H](N(C)c1nc(COC(C)=O)c(F)c(Nc3cc(C)[nH]n3)n1)C2 [Compound 1, (2-(((1R,3s,5S)-9-(ethylsulfonyl)-9-azabicyclo[3.3.1]nonan-3-yl)(methyl)amino)-5-fluoro-6-((5-methyl-1H-pyrazol-3-yl)amino)pyrimidin-4-yl)methyl acetate] | ≤ 10 nM | < 5000 µg/mL | > 10000 µg/mL | 5000 to 10000 µg/mL | > 10000 µg/mL | > 10000 µg/mL | 
CCC(=O)OCc1nc(N(C)[C@@H]2C[C@H]3CCC[C@@H](C2)N3S(=O)(=O)CC)nc(Nc2cc(C)[nH]n2)c1F [Compound 2, (2-(((1R,3s,5S)-9-(ethylsulfonyl)-9-azabicyclo[3.3.1]nonan-3-yl)(methyl)amino)-5-fluoro-6-((5-methyl-1H-pyrazol-3-yl)amino)pyrimidin-4-yl)methyl propionate] | ≤ 10 nM | < 5000 µg/mL | > 10000 µg/mL | > 10000 µg/mL | > 10000 µg/mL | > 10000 µg/mL | 
CCCC(=O)OCc1nc(N(C)[C@@H]2C[C@H]3CCC[C@@H](C2)N3S(=O)(=O)CC)nc(Nc2cc(C)[nH]n2)c1F [Compound 3, (2-(((1R,3s,5S)-9-(ethylsulfonyl)-9-azabicyclo[3.3.1]nonan-3-yl)(methyl)amino)-5-fluoro-6-((5-methyl-1H-pyrazol-3-yl)amino)pyrimidin-4-yl)methyl butyrate] | ≤ 10 nM | < 5000 µg/mL | > 10000 µg/mL | > 10000 µg/mL | > 10000 µg/mL | > 10000 µg/mL | 
CCCCC(=O)OCc1nc(N(C)[C@@H]2C[C@H]3CCC[C@@H](C2)N3S(=O)(=O)CC)nc(Nc2cc(C)[nH]n2)c1F [Compound 4, (2-(((1R,3s,5S)-9-(ethylsulfonyl)-9-azabicyclo[3.3.1]nonan-3-yl)(methyl)amino)-5-fluoro-6-((5-methyl-1H-pyrazol-3-yl)amino)pyrimidin-4-yl)methyl pentanoate] | ≤ 10 nM | < 5000 µg/mL | > 10000 µg/mL | > 10000 µg/mL | < 5000 µg/mL | > 10000 µg/mL | 
CCCCCCC(=O)OCc1nc(N(C)[C@@H]2C[C@H]3CCC[C@@H](C2)N3S(=O)(=O)CC)nc(Nc2cc(C)[nH]n2)c1F [Compound 5, (2-(((1R,3s,5S)-9-(ethylsulfonyl)-9-azabicyclo[3.3.1]nonan-3-yl)(methyl)amino)-5-fluoro-6-((5-methyl-1H-pyrazol-3-yl)amino)pyrimidin-4-yl)methyl heptanoate] | ≤ 10 nM | < 5000 µg/mL | > 10000 µg/mL | > 10000 µg/mL | 5000 to 10000 µg/mL (≈ 8.62 to 17.2 mM) | > 10000 µg/mL | 
CCS(=O)(=O)N1[C@@H]2CCC[C@H]1C[C@H](N(C)c1nc(COC(=O)OC3CCCCC3)c(F)c(Nc3cc(C)[nH]n3)n1)C2 [Compound 6, cyclohexyl ((2-(((1R,3s,5S)-9-(ethylsulfonyl)-9-azabicyclo[3.3.1]nonan-3-yl)(methyl)amino)-5-fluoro-6-((5-methyl-1H-pyrazol-3-yl)amino)pyrimidin-4-yl)methyl) carbonate] | 10 to 31.6 nM | < 5000 µg/mL | > 10000 µg/mL | 5000 to 10000 µg/mL (≈ 8.42 to 16.8 mM) | 5000 to 10000 µg/mL (≈ 8.42 to 16.8 mM) | > 10000 µg/mL | 
CCS(=O)(=O)N1[C@@H]2CCC[C@H]1C[C@H](N(C)c1nc(COC(=O)C3CCOCC3)c(F)c(Nc3cc(C)[nH]n3)n1)C2 [Compound 7, (2-(((1R,3s,5S)-9-(ethylsulfonyl)-9-azabicyclo[3.3.1]nonan-3-yl)(methyl)amino)-5-fluoro-6-((5-methyl-1H-pyrazol-3-yl)amino)pyrimidin-4-yl)methyl tetrahydro-2H-pyran-4-carboxylate] | ≤ 10 nM | < 5000 µg/mL | > 10000 µg/mL | > 10000 µg/mL | > 10000 µg/mL |  | > 2500 µL/min/mg
CCS(=O)(=O)N1[C@@H]2CCC[C@H]1C[C@H](N(C)c1nc(COC(=O)OC(C)C)c(F)c(Nc3cc(C)[nH]n3)n1)C2 [Compound 8, (2-(((1R,3s,5S)-9-(ethylsulfonyl)-9-azabicyclo[3.3.1]nonan-3-yl)(methyl)amino)-5-fluoro-6-((5-methyl-1H-pyrazol-3-yl)amino)pyrimidin-4-yl)methyl isopropyl carbonate] | ≤ 10 nM | < 5000 µg/mL | > 10000 µg/mL | > 10000 µg/mL | < 5000 µg/mL |  | 
CCS(=O)(=O)N1[C@@H]2CCC[C@H]1C[C@H](N(C)c1nc(COC(=O)OC3CCOCC3)c(F)c(Nc3cc(C)[nH]n3)n1)C2 [Compound 9, (2-(((1R,3s,5S)-9-(ethylsulfonyl)-9-azabicyclo[3.3.1]nonan-3-yl)(methyl)amino)-5-fluoro-6-((5-methyl-1H-pyrazol-3-yl)amino)pyrimidin-4-yl)methyl (tetrahydro-2H-pyran-4-yl) carbonate] | ≤ 10 nM | < 5000 µg/mL | > 10000 µg/mL | > 10000 µg/mL | > 10000 µg/mL |  | > 2500 µL/min/mg
CCS(=O)(=O)N1[C@@H]2CCC[C@H]1C[C@H](N(C)c1nc(CO)c(F)c(Nc3cc(C)[nH]n3)n1)C2 [Compound M, (2-(((1R,3s,5S)-9-(ethylsulfonyl)-9-azabicyclo[3.3.1]nonan-3-yl)(methyl)amino)-5-fluoro-6-((5-methyl-1H-pyrazol-3-yl)amino)pyrimidin-4-yl)methanol] | ≤ 10 nM | < 5000 µg/mL | < 5000 µg/mL | < 5000 µg/mL | < 5000 µg/mL | > 10000 µg/mL | 132 µL/min/mg
